Reference: patent publication US5017581A, “Pyridonecarboxylic acids and their anti-bacterial compositions” (Shionogi & Co., Ltd., priority 1988, dated 1991)
Values after ≈ are worked out from the molar mass of the structure shown.

Columns and labels:
Escherichia coli 7437 = assay: Antibacterial spectrum, MIC (method of the Japan Society of Chemotherapy), C; assay type: cell-based; conditions: 10^6 cells/ml, read-out: MIC (minimum grouth inhibitory concentration)
Description: (§1) The antibacterial activity was determined by measuring minimum grouth inhibitory concentrations (MICs) in accordance with the method as designated by the Japan Society of Chemotherapy. A, B, C, and D in the table indicate the following meanings: C: Escherichia coli 7437 The test microorganisms were used at 10^6 cells/ml.

[1] = Convulsion and psychotropic action in mice after oral administration; assay type: in vivo; conditions: orally, dose of 10 mg
[2] = tested on: Staphylococcus aureus Smith; assay: Antibacterial spectrum, MIC (method of the Japan Society of Chemotherapy), A; assay type: cell-based; conditions: 10^6 cells/ml, read-out: MIC (minimum grouth inhibitory concentration)
Description: as §1, with “A: Staphylococcus aureus Smith” for “C: Escherichia coli 7437”

[3] = tested on: Escherichia coli PC 51149 B; assay: Antibacterial spectrum, MIC (method of the Japan Society of Chemotherapy), D; assay type: cell-based; conditions: PC51149B, 10^6 cells/ml, read-out: MIC (minimum grouth inhibitory concentration)
Description: as §1, with “D:” for “C:”, “PC 51149 B” for “7437”

[4] = tested on: Staphylococcus aureus SR 14 (R); assay: Antibacterial spectrum, MIC (method of the Japan Society of Chemotherapy), B; assay type: cell-based; conditions: 10^6 cells/ml, read-out: MIC (minimum grouth inhibitory concentration)
Description: The antibacterial activity was determined by measuring minimum grouth inhibitory concentrations (MICs) in accordance with the method as designated by the Japan Society of Chemotherapy.
A, B, C, and D in the table indicate the following meanings:
B: Staphylococcus aureus SR 14 (R)
The test microorganisms were used at 10^6 cells/ml.

| MIC (Escherichia coli 7437) | MIC [2] | MIC [3] | MIC [4] | SMILES | convulsion and psychotropic action [1] |
| --- | --- | --- | --- | --- | --- |
| < 0.003 µg/mL | 0.05 µg/mL (≈ 0.138 µM) | < 0.003 µg/mL | 0.05 µg/mL (≈ 0.138 µM) | C=C1CN(c2c(F)cc3c(=O)c(C(=O)O)cn(C4CC4)c3c2F)CC1N (stereo not drawn) [Compound I-1, 1-Cyclopropyl-6,8-difluoro-7-(3-amino-4-methylenepyrrolidin-1-yl)-1,4-dihydro-4-oxo-3-quinolinecarboxylic acid] | neither convulsion nor psychotropic action was observed |
| < 0.003 µg/mL | 0.01 µg/mL (≈ 0.0265 µM) | < 0.003 µg/mL | 0.02 µg/mL (≈ 0.0529 µM) | C=C1CN(c2c(F)cc3c(=O)c(C(=O)O)cn(C4CC4)c3c2Cl)CC1N (stereo not drawn) [Compound I-2, 1-Cyclopropyl-8-chloro-6-fluoro-7-(3-amino-4-methylenepyrrolidin-1-yl)-1,4-dihydro-4-oxo-3-quinolinecarboxylic acid] | – |
| < 0.003 µg/mL | 0.02 µg/mL (≈ 0.0531 µM) | < 0.003 µg/mL | 0.05 µg/mL (≈ 0.133 µM) | C=C1CN(c2c(F)c(N)c3c(=O)c(C(=O)O)cn(C4CC4)c3c2F)CC1N (stereo not drawn) [Compound I-3, 1-Cyclopropyl-5-amino-6,8-difluoro-7-(3-amino-4-methylenepyrrolydin-1-yl)-1,4-dihydro-4-oxo-3-quinolinecarboxylic acid] | – |
| < 0.003 µg/mL | 0.1 µg/mL (≈ 0.29 µM) | 0.006 µg/mL (≈ 0.0174 µM) | 0.1 µg/mL (≈ 0.29 µM) | C=C1CN(c2nc3c(cc2F)c(=O)c(C(=O)O)cn3C2CC2)CC1N (stereo not drawn) [Compound I-4, 1-Cyclopropyl-6-fluoro-7-(3-amino-4-methylenepyrrolidin-1-yl)-1,4-dihydro-4-oxo-1,8-naphthyridine-3-carboxylic acid] | – |
| < 0.003 µg/mL | 0.05 µg/mL (≈ 0.133 µM) | 0.006 µg/mL (≈ 0.016 µM) | 0.05 µg/mL (≈ 0.133 µM) | C=C1CN(c2c(F)cc3c(=O)c(C(=O)O)cn(C4CC4)c3c2F)CC1NC (stereo not drawn) [Compound I-5, 1-Cyclopropyl-6,8-difluoro-7-(3-methylamino-4-methylenepyrrolidin-1-yl)-1,4-dihydro-4-oxo-3-quinolinecarboxylic acid] | – |
